# Values quoted from earlier work as cited in PMC9877316, “Identification of a novel P2X7 antagonist using structure-based virtual screening” (Frontiers in Pharmacology, 2023).
# How the values were obtained:
# Parameters in all cases: method as in Villoutreix et al., 2011
# mast cell degranulation = conditions: ref Villoutreix et al., 2011; read-out: IC50 for inhibiting mast cell degranulation; cited from earlier work
# tyrosine kinase Syk [1] = conditions: antibody displacement assay; ref Villoutreix et al., 2011; cited from earlier work
# tyrosine kinase Syk [2] = conditions: ref Villoutreix et al., 2011; cited from earlier work
smiles,measurement,setting,value
"CCOC(=O)C1=C(C)NC2=C(C(=O)c3ccccc32)C1c1cc(Br)ccc1OCC(=O)O (stereo not drawn) [Chembridge ID 6422575, (4-bromo-2-[3-(ethoxycarbonyl)-2-methyl-5-oxo-4,5-dihydro-1H-indeno[1,2-b]pyridin-4-yl]phenoxy) acetic acid]",IC50,mast cell degranulation,≥ 20 µM
same,inhibition of antibody binding,tyrosine kinase Syk [1],81%
same,Kd,tyrosine kinase Syk [2],6.2 µM
